From PubChem BioAssay AID1358 (Sanford-Burnham Center for Chemical Genomics, 2008) come the findings set out here.

Calls of active or inactive are those of the source.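 How the source made its calls: active means no phosphorylated p38 MAPK band on western blot after an ER stress trigger, matching the untreated control; inactive means the rest.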

For the experiment, the system named is CSM14.1 cells, thapsigargin, phospho-p38 Western blot. The experiment is described as follows: inhibition of thapsigargin-induced p38 phosphorylation, late-stage follow-up, mechanism study for ER stress cell death project, CSM14.1 cells, Western blot (AID 1358).

`COc1ccc(C2CC(=O)C3=C(C2)Nc2ccccc2NC3c2cccc(Oc3ccccc3)c2)cc1OC` (stereo unspecified): the outcome was active. For `COc1ccc(C2CC(=O)C3=C(C2)Nc2ccccc2NC3c2cccc(Br)c2)cc1OC` (stereo unspecified), the result was active. The value for `CCOc1cccc(C2Nc3ccccc3NC3=C2C(=O)CC(c2ccc(OC)cc2)C3)c1` (stereo unspecified) was “active”; that for `CC1(C)CC(=O)C2=C(C1)Nc1ccccc1NC2c1ccc(-c2ccccc2)cc1` (stereo unspecified) was “active”; that for `COc1ccc(C2CC(=O)C3=C(C2)Nc2ccccc2NC3c2ccccc2C(F)(F)F)cc1OC` (stereo unspecified) was “active”. The value for `COc1ccc(C2CC(=O)C3=C(C2)Nc2ccccc2NC3c2cccc(C(F)(F)F)c2)cc1OC` (stereo unspecified) was “active”; that for `CSc1ccc(C2Nc3ccccc3NC3=C2C(=O)CC(c2ccccc2)C3)cc1` (stereo unspecified) was “active”. To `CCOc1cc(C2Nc3ccccc3NC3=C2C(=O)CC(c2ccc(OC)cc2)C3)cc(Cl)c1O` (stereo unspecified) belongs “active”; to `COc1ccc(C2CC(=O)C3=C(C2)Nc2ccccc2NC3c2cc(C)ccc2C)cc1` (stereo unspecified), “active”. In the case of `O=C1CC(c2ccccc2)CC2=C1C(c1c(F)cccc1Cl)Nc1ccccc1N2` (stereo unspecified), the outcome was active.

With `CCCOc1ccc(C2Nc3ccccc3NC3=C2C(=O)CC(c2ccc(OC)c(OC)c2)C3)cc1` (stereo unspecified), the result was active.
